Laboratory results from US8129371B2, “Thienopyrimidine and pyrazolopyrimidine compounds and their use as mTOR kinase and PI3 kinase inhibitors” (Wyeth LLC, priority 2007, dated 2012).
Like-named read-outs stand apart in the source and are kept apart here. One block for each compound: values may come before it.

Key:
breast line MDA468 = assay: In vitro cell culture growth assay (MTS), MDA468; assay type: cell-based; conditions: Homo sapiens, 72 h, MDA468 cells, three days after drug treatment
Method in brief: (§1)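 Cells were plated and, one day later, treated with inhibitors. Three days after treatment, viable cell density was measured by MTS dye conversion, read as absorbance at 490 nm. Effects are expressed as percent of control growth versus vehicle-treated cells on the same plate.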

Human mTOR (FLAG-TOR) = target: T1, Human mTOR (FLAG-TOR) (Homo sapiens, UniProt P42345); assay: Human mTOR kinase assay with purified enzyme, DELFIA format; assay type: biochemical
T1 construct: FLAG
Method in brief: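 Purified FLAG-mTOR in HEPES pH 7.4 buffer with 10 mM MnCl2 was preincubated with inhibitor and reacted 2 h at room temperature with His6-S6K substrate, then stopped with EDTA/EGTA. Phospho-T389 S6K detected by DELFIA with Eu-labelled antibody (40 ng/mL) after plate capture; inhibition computed from signal.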

PI3K [1] = target: T2, PI3K (Homo sapiens, UniProt P42336); assay: Fluorescence polarization assay for PI3K; assay type: biochemical; conditions: read-out: PI3 Kinase α IC50
T2 construct: PI3 Kinase α IC50; other: PI3 Kinase α; other: PI3 Kinase α isoform, fluorescence polarization
Method in brief: (§2)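 PI3K was preincubated with compound (final DMSO 1%), and the reaction was started with PIP2/ATP substrate and run 30–60 min. It was stopped with a detector mix giving 10 nM red probe and 70 nM GST-GRP.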

PI3K [2] = target: T3, PI3K (Homo sapiens, UniProt P48736); assay: Fluorescence polarization assay for PI3K; assay type: biochemical; conditions: read-out: PI3 Kinase γ IC50
T3 construct: PI3 Kinase γ IC50; other: PI3 Kinase γ; other: PI3 Kinase γ isoform, fluorescence polarization
Method in brief: as §2

prostate line LNCap = assay: In vitro cell culture growth assay (MTS), LNCap; assay type: cell-based; conditions: Homo sapiens, LNCaP, 72 h, LNCap cells, three days after drug treatment
Method in brief: as §1

[3] = purified human mTOR enzyme, DELFIA format
[4] = PI3 Kinase α isoform, fluorescence polarization
[5] = PI3 Kinase γ isoform, fluorescence polarization

T2 sequence (P42336 whole entry, canonical isoform): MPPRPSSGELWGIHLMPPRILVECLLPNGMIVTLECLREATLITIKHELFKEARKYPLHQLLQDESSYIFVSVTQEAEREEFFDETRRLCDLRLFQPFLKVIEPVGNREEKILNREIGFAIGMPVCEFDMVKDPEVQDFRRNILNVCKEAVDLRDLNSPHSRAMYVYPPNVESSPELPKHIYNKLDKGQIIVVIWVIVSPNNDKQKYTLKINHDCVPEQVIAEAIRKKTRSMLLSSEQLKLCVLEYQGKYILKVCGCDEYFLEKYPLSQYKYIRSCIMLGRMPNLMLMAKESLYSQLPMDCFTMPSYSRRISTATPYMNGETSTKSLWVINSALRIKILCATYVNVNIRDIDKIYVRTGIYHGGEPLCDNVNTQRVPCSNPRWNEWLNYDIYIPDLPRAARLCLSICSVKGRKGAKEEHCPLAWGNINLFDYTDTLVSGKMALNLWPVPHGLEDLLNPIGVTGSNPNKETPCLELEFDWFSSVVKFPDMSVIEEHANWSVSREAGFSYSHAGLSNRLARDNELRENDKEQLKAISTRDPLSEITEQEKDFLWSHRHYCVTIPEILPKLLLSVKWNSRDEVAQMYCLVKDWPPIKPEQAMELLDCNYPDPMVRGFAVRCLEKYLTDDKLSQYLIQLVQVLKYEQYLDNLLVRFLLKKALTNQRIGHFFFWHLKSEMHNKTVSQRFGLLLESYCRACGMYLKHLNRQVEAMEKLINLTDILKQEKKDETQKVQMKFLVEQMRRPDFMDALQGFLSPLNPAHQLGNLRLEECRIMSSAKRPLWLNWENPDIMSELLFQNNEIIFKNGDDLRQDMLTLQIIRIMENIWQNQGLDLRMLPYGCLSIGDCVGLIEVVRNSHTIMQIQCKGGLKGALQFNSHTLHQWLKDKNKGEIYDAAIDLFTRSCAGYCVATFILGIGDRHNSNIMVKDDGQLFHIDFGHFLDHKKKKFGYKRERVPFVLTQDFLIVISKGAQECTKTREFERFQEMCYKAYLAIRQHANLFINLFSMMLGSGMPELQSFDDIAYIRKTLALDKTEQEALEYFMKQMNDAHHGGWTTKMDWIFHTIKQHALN
T3 sequence (P48736 whole entry, canonical isoform): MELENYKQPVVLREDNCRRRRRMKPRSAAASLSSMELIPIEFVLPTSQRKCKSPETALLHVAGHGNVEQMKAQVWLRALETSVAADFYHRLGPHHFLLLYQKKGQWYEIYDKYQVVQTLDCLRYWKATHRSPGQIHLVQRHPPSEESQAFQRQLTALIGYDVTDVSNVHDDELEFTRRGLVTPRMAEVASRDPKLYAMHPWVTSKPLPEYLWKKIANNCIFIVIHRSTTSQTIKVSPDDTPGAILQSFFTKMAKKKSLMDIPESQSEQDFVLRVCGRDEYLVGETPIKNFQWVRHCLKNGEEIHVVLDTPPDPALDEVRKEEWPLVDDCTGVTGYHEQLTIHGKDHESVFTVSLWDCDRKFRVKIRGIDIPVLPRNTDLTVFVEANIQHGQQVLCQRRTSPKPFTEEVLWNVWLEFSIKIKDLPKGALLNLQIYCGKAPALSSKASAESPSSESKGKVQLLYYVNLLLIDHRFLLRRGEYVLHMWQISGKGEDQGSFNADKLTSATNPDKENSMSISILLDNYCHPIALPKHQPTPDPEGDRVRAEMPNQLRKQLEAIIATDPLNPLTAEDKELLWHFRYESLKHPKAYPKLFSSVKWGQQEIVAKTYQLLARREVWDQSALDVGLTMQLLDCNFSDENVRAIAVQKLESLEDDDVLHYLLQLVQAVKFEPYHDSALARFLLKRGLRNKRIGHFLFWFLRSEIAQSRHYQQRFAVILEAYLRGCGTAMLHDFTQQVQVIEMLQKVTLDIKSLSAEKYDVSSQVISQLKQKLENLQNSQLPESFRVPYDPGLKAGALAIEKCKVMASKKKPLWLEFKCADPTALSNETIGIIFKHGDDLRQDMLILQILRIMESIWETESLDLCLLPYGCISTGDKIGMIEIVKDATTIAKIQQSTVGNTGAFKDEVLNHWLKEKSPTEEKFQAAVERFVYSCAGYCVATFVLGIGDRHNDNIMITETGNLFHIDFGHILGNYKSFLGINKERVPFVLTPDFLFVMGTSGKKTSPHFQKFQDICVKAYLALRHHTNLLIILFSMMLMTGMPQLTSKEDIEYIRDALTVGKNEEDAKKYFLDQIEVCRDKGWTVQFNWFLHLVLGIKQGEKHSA

SMILES: CNC(=O)Nc1ccc(-c2nc(N3CC4CCC(C3)O4)c3cnn(C4CCC(=O)CC4)c3n2)cc1 [Example 106, 1-(4-(4-(8-oxa-3-azabicyclo[3.2.1]octan-3-yl)-1-(4-oxocyclohexyl)-1H-pyrazolo[3,4-d]pyrimidin-6-yl)phenyl)-3-methylurea]
- IC50 (breast line MDA468): 110 nM
- IC50 (Human mTOR (FLAG-TOR)): 0.22 nM
- IC50 (PI3K [1]; PI3 Kinase α): 1300 nM
- IC50 (PI3K [2]; PI3 Kinase γ): > 10000 nM
- IC50 (prostate line LNCap): 32 nM

SMILES: O=C(Nc1ccc(-c2nc(N3C4CCC3COC4)c3cnn(CC(F)(F)F)c3n2)cc1)Nc1ccc(N2CCOCC2)cc1 [Example 273, 1-(4-morpholin-4-ylphenyl)-3-{4-[4-(3-oxa-8-azabicyclo[3.2.1]oct-8-yl)-1-(2,2,2-trifluoroethyl)-1H-pyrazolo[3,4-d]pyrimidin-6-yl]phenyl}urea]
- IC50 (breast line MDA468): 10 nM
- IC50 (Human mTOR (FLAG-TOR)): 0.24 nM
- IC50 (PI3K [1]; PI3 Kinase α): 618 nM
- IC50 (PI3K [2]; PI3 Kinase γ): > 10000 nM
- IC50 (prostate line LNCap): 1 nM

SMILES: CC(C)C(=O)N1CCC(n2ncc3c(N4CC5CCC(C4)O5)nc(-c4ccc(NC(=O)NCCO)cc4)nc32)CC1 [Example 84, 1-(2-hydroxyethyl)-3-{4-[1-(1-isobutyrylpiperidin-4-yl)-4-(8-oxa-3-azabicyclo[3.2.1]oct-3-yl)-1H-pyrazolo[3,4-d]pyrimidin-6-yl]phenyl}urea]
- IC50 (breast line MDA468): 1200 nM
- IC50 (Human mTOR (FLAG-TOR)): 0.56 nM
- IC50 (PI3K [1]; PI3 Kinase α): 1980 nM
- IC50 (PI3K [2]; PI3 Kinase γ): > 10000 nM
- IC50 (prostate line LNCap): 1010 nM

SMILES: CCn1ncc2c(N3CC4CCC(C3)O4)nc(-c3ccc(NC(=O)OCCO)cc3)nc21 [Example 45, 2-hydroxyethyl {4-[1-ethyl-4-(8-oxa-3-azabicyclo[3.2.1]oct-3-yl)-1H-pyrazolo[3,4-d]pyrimidin-6-yl]phenyl}carbamate]
- IC50 (breast line MDA468): 270 nM
- IC50 (Human mTOR (FLAG-TOR)): 1.2 nM
- IC50 (PI3K [1]; PI3 Kinase α): 1610 nM
- IC50 (PI3K [2]; PI3 Kinase γ): > 10000 nM
- IC50 (prostate line LNCap): 100 nM

SMILES: CC(C)C(=O)N1CCC(n2ncc3c(N4CC5CCC(C4)O5)nc(-c4ccc(NC(=O)Nc5ccncc5)cc4)nc32)CC1 [Example 89, 1-{4-[1-(1-isobutyrylpiperidin-4-yl)-4-(8-oxa-3-azabicyclo[3.2.1]oct-3-yl)-1H-pyrazolo[3,4-d]pyrimidin-6-yl]phenyl}-3-pyridin-4-ylurea]
- IC50 (breast line MDA468): 63 nM
- IC50 (Human mTOR (FLAG-TOR)): 0.26 nM
- IC50 (PI3K [1]; PI3 Kinase α): 301 nM
- IC50 (PI3K [2]; PI3 Kinase γ): 2380 nM
- IC50 (prostate line LNCap): 15 nM

SMILES: CC(C)OC(=O)N1CCC(n2ncc3c(N4CC5CCC(C4)O5)nc(-c4ccc(NC(=O)Nc5ccncc5)cc4)nc32)CC1 [Example 73, isopropyl 4-[4-(8-oxa-3-azabicyclo[3.2.1]oct-3-yl)-6-{4-[(pyridin-4-ylcarbamoyl)amino]phenyl}-1H-pyrazolo[3,4-d]pyrimidin-1-yl]piperidine-1-carboxylate]
- IC50 (breast line MDA468): 9 nM
- IC50 (Human mTOR (FLAG-TOR)): 0.23 nM
- IC50 (PI3K [1]; PI3 Kinase α): 460 nM
- IC50 (PI3K [2]; PI3 Kinase γ): 672 nM
- IC50 (prostate line LNCap): 0.9 nM

SMILES: CCOC(=O)N1CCC(n2ncc3c(N4CC5CCC(C4)O5)nc(-c4ccc(NC(=O)NCCCNC)cc4)nc32)CC1 [Example 38, ethyl 4-{6-[4-({[3-(methylamino)propyl]carbamoyl}amino)phenyl]-4-(8-oxa-3-azabicyclo[3.2.1]oct-3-yl)-1H-pyrazolo[3,4-d]pyrimidin-1-yl}piperidine-1-carboxylate]
- IC50 (breast line MDA468): 7000 nM
- IC50 (Human mTOR (FLAG-TOR)): 5.3 nM
- IC50 (PI3K [1]; PI3 Kinase α): 1760 nM
- IC50 (PI3K [2]; PI3 Kinase γ): 11000 nM
- IC50 (prostate line LNCap): 4400 nM

SMILES: CCOC(=O)N1CCC(n2ncc3c(N4CC5CCC(C4)O5)nc(-c4ccc(NC(=O)NC5CCNCC5)cc4)nc32)CC1 [Example 103, ethyl 4-[4-(8-oxa-3-azabicyclo[3.2.1]oct-3-yl)-6-{4-[(piperidin-4-ylcarbamoyl)amino]phenyl}-1H-pyrazolo[3,4-d]pyrimidin-1-yl]piperidine-1-carboxylate]
- IC50 (breast line MDA468): 11000 nM
- IC50 (Human mTOR (FLAG-TOR)): 6.8 nM
- IC50 (PI3K [1]; PI3 Kinase α): 874 nM
- IC50 (PI3K [2]; PI3 Kinase γ): 1100 nM
- IC50 (prostate line LNCap): 5000 nM

Second part, led by results:

- IC50 (Human mTOR (FLAG-TOR)): 0.48 nM
- IC50 (PI3K [1]; PI3 Kinase α): 74 nM
- IC50 (PI3K [2]; PI3 Kinase γ): 1680 nM
- IC50 (prostate line LNCap): 4 nM
SMILES: CN1CCN(c2ccc(NC(=O)Nc3ccc(-c4nc(N5CC6CCC(C5)O6)c5cnn(CCC#N)c5n4)cc3)cc2)CC1 [Example 220, 1-{4-[1-(2-cyanoethyl)-4-(8-oxa-3-azabicyclo[3.2.1]oct-3-yl)-1H-pyrazolo[3,4-d]pyrimidin-6-yl]phenyl}-3-[4-(4-methylpiperazin-1-yl)phenyl]urea]
- IC50 (breast line MDA468): 10 nM

- IC50 (Human mTOR (FLAG-TOR); [3]): 9 nM
- IC50 (PI3K [1]; [4]): 2460 nM
- IC50 (PI3K [2]; [5]): > 10000 nM
- IC50 (prostate line LNCap): 1050 nM
SMILES: CCn1nc(C(O)CO)c2c(N3CC4CCC(C3)O4)nc(-c3ccc(NC(=O)NC)cc3)nc21 (centres unmarked) [Example 351, 1-{4-[3-(1,2-dihydroxyethyl)-1-ethyl-4-(8-oxa-3-azabicyclo[3.2.1]oct-3-yl)-1H-pyrazolo[3,4-d]pyrimidin-6-yl]phenyl}-3-methylurea]
- IC50 (breast line MDA468): 1600 nM

- IC50 (Human mTOR (FLAG-TOR)): 0.125 nM
- IC50 (PI3K [1]; PI3 Kinase α): 220 nM
- IC50 (PI3K [2]; PI3 Kinase γ): 1930 nM
- IC50 (prostate line LNCap): < 1 nM
SMILES: O=C(Nc1ccncc1)Nc1ccc(-c2nc(N3CC4CCC(C3)O4)c3cnn(C4CCC5(CC4)OCCO5)c3n2)cc1 [Example 128, 1-{4-[1-(1,4-dioxaspiro[4.5]dec-8-yl)-4-(8-oxa-3-azabicyclo[3.2.1]oct-3-yl)-1H-pyrazolo[3,4-d]pyrimidin-6-yl]phenyl}-3-pyridin-4-ylurea]
- IC50 (breast line MDA468): 1 nM

- IC50 (Human mTOR (FLAG-TOR); [3]): 0.985 nM
- IC50 (PI3K [1]; [4]): 2150 nM
- IC50 (PI3K [2]; [5]): 6510 nM
- IC50 (prostate line LNCap): 130 nM
SMILES: CCNC(=O)Nc1ccc(-c2nc(N3CC4CCC(C3)O4)c3cnn(C4CCC(N5CCN(C)CC5)CC4)c3n2)cc1 (centres unmarked) [Example 370, 1-ethyl-3-(4-{1-[4-(4-methylpiperazin-1-yl)cyclohexyl]-4-(8-oxa-3-azabicyclo[3.2.1]oct-3-yl)-1H-pyrazolo[3,4-d]pyrimidin-6-yl}phenyl)urea]
- IC50 (breast line MDA468): 400 nM

- IC50 (Human mTOR (FLAG-TOR)): 0.185 nM
- IC50 (PI3K [1]; PI3 Kinase α): 102 nM
- IC50 (PI3K [2]; PI3 Kinase γ): 1200 nM
- IC50 (prostate line LNCap): < 1 nM
SMILES: O=C(Nc1ccncc1)Nc1ccc(-c2nc(N3CC4CCC(C3)O4)c3cnn(CCF)c3n2)cc1 [Example 249, 1-{4-[1-(2-fluoroethyl)-4-(8-oxa-3-azabicyclo[3.2.1]oct-3-yl)-1H-pyrazolo[3,4-d]pyrimidin-6-yl]phenyl}-3-pyridin-4-ylurea]
- IC50 (breast line MDA468): 8 nM

- IC50 (Human mTOR (FLAG-TOR)): 3.75 nM
- IC50 (PI3K [1]; PI3 Kinase α): 6660 nM
- IC50 (PI3K [2]; PI3 Kinase γ): > 10000 nM
- IC50 (prostate line LNCap): 200 nM
SMILES: COC(=O)Nc1ccc(-c2nc(N3CC4CCC(C3)O4)c3cnn(C4CCC(O)CC4)c3n2)cc1 (centres unmarked) [Example 137, methyl {4-[1-(4-hydroxycyclohexyl)-4-(8-oxa-3-azabicyclo[3.2.1]oct-3-yl)-1H-pyrazolo[3,4-d]pyrimidin-6-yl]phenyl}carbamate]
- IC50 (breast line MDA468): 1700 nM

- IC50 (Human mTOR (FLAG-TOR); [3]): 8.05 nM
- IC50 (PI3K [1]; [4]): 606 nM
- IC50 (PI3K [2]; [5]): 5320 nM
- IC50 (prostate line LNCap): 380 nM
SMILES: CNC(=O)Nc1ccc(-c2nc(N3CC4CCC(C3)O4)c3cnn(C4CCC(N5CCCC5)CC4)c3n2)cc1 (centres unmarked) [Example 331, 1-methyl-3-{4-[4-(8-oxa-3-azabicyclo[3.2.1]oct-3-yl)-1-(4-pyrrolidin-1-ylcyclohexyl)-1H-pyrazolo[3,4-d]pyrimidin-6-yl]phenyl}urea]
- IC50 (breast line MDA468): 1200 nM

- IC50 (Human mTOR (FLAG-TOR)): 225 nM
- IC50 (PI3K [1]; PI3 Kinase α): 7510 nM
- IC50 (PI3K [2]; PI3 Kinase γ): > 10000 nM
- IC50 (prostate line LNCap): 2700 nM
SMILES: COCCOC(=O)Nc1ccc(-c2nc(N3CC4CCC(C3)O4)c3cnn(C4CCN(C(=O)OC)CC4)c3n2)cc1 [Example 113, methyl 4-[6-(4-{[(2-methoxyethoxy)carbonyl]amino}phenyl)-4-(8-oxa-3-azabicyclo[3.2.1]oct-3-yl)-1H-pyrazolo[3,4-d]pyrimidin-1-yl]piperidine-1-carboxylate]
- IC50 (breast line MDA468): 30000 nM

- IC50 (Human mTOR (FLAG-TOR)): 1.5 nM
- IC50 (PI3K [1]; PI3 Kinase α): > 10000 nM
- IC50 (PI3K [2]; PI3 Kinase γ): > 10000 nM
- IC50 (prostate line LNCap): 45 nM
SMILES: O=C(Nc1ccc(-c2nc(N3CC4CCC(C3)O4)c3cnn(C4CCC5(CC4)OCCO5)c3n2)cc1)OCCF [Example 130, 2-fluoroethyl {4-[1-(1,4-dioxaspiro[4.5]dec-8-yl)-4-(8-oxa-3-azabicyclo[3.2.1]oct-3-yl)-1H-pyrazolo[3,4-d]pyrimidin-6-yl]phenyl}carbamate]
- IC50 (breast line MDA468): 800 nM

- IC50 (Human mTOR (FLAG-TOR)): 0.175 nM
- IC50 (PI3K [1]; PI3 Kinase α): 102 nM
- IC50 (PI3K [2]; PI3 Kinase γ): 757 nM
- IC50 (prostate line LNCap): < 1 nM
SMILES: CCn1ncc2c(N3CC4CCC(C3)O4)nc(-c3ccc(NC(=O)Nc4ccc(C(=O)NN5CCCC5)cc4)cc3)nc21 [Example 290, 4-[({4-[1-ethyl-4-(8-oxa-3-azabicyclo[3.2.1]oct-3-yl)-1H-pyrazolo[3,4-d]pyrimidin-6-yl]phenyl}carbamoyl)amino]-N-pyrrolidin-1-ylbenzamide]
- IC50 (breast line MDA468): 4 nM

- IC50 (Human mTOR (FLAG-TOR)): 0.08 nM
- IC50 (PI3K [1]; PI3 Kinase α): 29 nM
- IC50 (PI3K [2]; PI3 Kinase γ): 1820 nM
- IC50 (prostate line LNCap): < 1 nM
SMILES: COC(=O)N1CCC(n2ncc3c(N4CC5CCC(C4)O5)nc(-c4ccc(NC(=O)Nc5ccc(CO)cc5)cc4)nc32)CC1 [Example 164, methyl 4-{6-[4-({[4-(hydroxymethyl)phenyl]carbamoyl}amino)phenyl]-4-(8-oxa-3-azabicyclo[3.2.1]oct-3-yl)-1H-pyrazolo[3,4-d]pyrimidin-1-yl}piperidine-1-carboxylate]
- IC50 (breast line MDA468): < 1 nM
